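Cultured in 96-well plates, cells were exposed to test compound for 48 hours across five concentrations. TGI denotes the concentration required for complete inhibition of growth.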
Assays:
Test in all cases: NCI tumour cell line growth inhibition, 48 h
[1] = tested on: UO-31 renal
[2] = tested on: ACHN renal
[3] = tested on: SF-295 CNS
[4] = tested on: NCI-H226 lung
[5] = tested on: UACC-257 melanoma
[6] = tested on: U251 CNS
[7] = tested on: SW-620 colon
[8] = tested on: T-47D breast
[9] = tested on: A549 NSCLC
[10] = tested on: TK-10 renal
[11] = tested on: 786-0 renal
[12] = tested on: OVCAR-8 ovarian
[13] = tested on: MDA-MB-231 breast
[14] = tested on: SF-539 CNS
[15] = tested on: SN12C renal
[16] = tested on: DU-145 prostate
[17] = tested on: RXF 393 renal
[18] = tested on: MOLT-4 leukemia
[19] = tested on: OVCAR-3 ovarian
[20] = tested on: KM12 colon
[21] = tested on: RPMI-8226 leukemia
[22] = tested on: A498 renal
[23] = tested on: COLO 205 colon
[24] = tested on: MDA-MB-435
[25] = tested on: MDA-N
[26] = tested on: SNB-19 CNS
[27] = tested on: OVCAR-4 ovarian
[28] = tested on: K-562 leukemia
[29] = tested on: SR leukemia
[30] = tested on: HOP-62 NSCLC
[31] = tested on: LOX IMVI melanoma
[32] = tested on: BT-549 breast
[33] = tested on: NCI-H23 lung
[34] = tested on: SK-MEL-28 melanoma
[35] = tested on: HS 578T breast
[36] = tested on: SF-268 CNS
[37] = tested on: M14 melanoma
[38] = tested on: SK-MEL-5 melanoma
[39] = tested on: CCRF-CEM leukemia
[40] = tested on: EKVX NSCLC
[41] = tested on: OVCAR-5 ovarian
[42] = tested on: UACC-62 melanoma
[43] = tested on: HCT-15 colon
[44] = tested on: HOP-92 NSCLC
[45] = tested on: MCF7 breast
[46] = tested on: HT29 colon
[47] = tested on: HCC-2998 colon
[48] = tested on: SK-MEL-2 melanoma
[49] = tested on: HCT-116 colon
[50] = tested on: CAKI-1 renal
[51] = tested on: NCI-H460 lung
[52] = tested on: NCI/ADR-RES ovarian
[53] = tested on: MALME-3M melanoma
[54] = tested on: SK-OV-3 ovarian
[55] = tested on: NCI-H522 lung

## O=C1/C(=C\c2cccc(Oc3ccccc3)c2)SC(c2ccccc2)N1c1cccc([N+](=O)[O-])c1 (stereo not given)
[1]
  TGI: > 100 µM
[2]
  TGI: > 100 µM
[3]
  TGI: > 100 µM
[4]
  TGI: > 100 µM
[5]
  TGI: > 100 µM
[6]
  TGI: > 100 µM
[7]
  TGI: > 100 µM
[8]
  TGI: > 100 µM
[9]
  TGI: > 100 µM
[10]
  TGI: > 100 µM
[11]
  TGI: > 100 µM
[12]
  TGI: > 100 µM
[13]
  TGI: > 100 µM
[14]
  TGI: 63.3 µM
[15]
  TGI: > 100 µM
[16]
  TGI: > 100 µM
[17]
  TGI: > 100 µM
[18]
  TGI: > 100 µM
[19]
  TGI: > 100 µM
[20]
  TGI: > 100 µM
[21]
  TGI: > 100 µM
[22]
  TGI: > 100 µM
[23]
  TGI: > 100 µM
[24]
  TGI: > 100 µM
[25]
  TGI: > 100 µM
[26]
  TGI: > 100 µM
[27]
  TGI: > 100 µM
[28]
  TGI: > 100 µM
[29]
  TGI: > 100 µM
[30]
  TGI: > 100 µM
[31]
  TGI: > 100 µM
[32]
  TGI: > 100 µM
[33]
  TGI: > 100 µM
[34]
  TGI: > 100 µM
[35]
  TGI: > 100 µM
[36]
  TGI: > 100 µM
[37]
  TGI: > 100 µM
[38]
  TGI: > 100 µM
[39]
  TGI: 81.2 µM
[40]
  TGI: > 100 µM
[41]
  TGI: > 100 µM
[42]
  TGI: > 100 µM
[43]
  TGI: > 100 µM
[44]
  TGI: > 100 µM
[45]
  TGI: > 100 µM
[46]
  TGI: > 100 µM
[47]
  TGI: > 100 µM
[48]
  TGI: > 100 µM
[49]
  TGI: > 100 µM
[50]
  TGI: > 100 µM
[51]
  TGI: > 100 µM
[52]
  TGI: > 100 µM
[53]
  TGI: > 100 µM
[54]
  TGI: > 100 µM
[55]
  TGI: > 100 µM

Reference: PubChem BioAssay (NCI)
